Assay results taken from the kinase profiling compilation of Christmann-Franck et al. (2016).

Legend:
Assay in all cases: radiometric filter-binding kinase assay, Kinase HotSpot
Settings in all cases: compound 0.5 µM; ATP 10 µM
[1] = molecular target: NEK7 (human) (UniProt Q8TDX7)
[2] = molecular target: OXSR1 (human) (UniProt O95747)
[3] = molecular target: RPS6KA6 KD1 KD2 (human) (UniProt Q9UK32)
[4] = molecular target: PRKX (human) (UniProt P51817)
[5] = molecular target: MATK (human) (UniProt P42679)
[6] = molecular target: PAK2 (human) (UniProt Q13177)
[7] = molecular target: SRPK3 (human) (UniProt Q9UPE1)
[8] = molecular target: PTK2 (human) (UniProt Q05397)
[9] = molecular target: IKBKE (human) (UniProt Q14164)
[10] = molecular target: CSNK1G2 (human) (UniProt P78368)
[11] = molecular target: PIM1 (human) (UniProt P11309)
[12] = molecular target: STK24 (human) (UniProt Q9Y6E0)
[13] = molecular target: RIPK2 (human) (UniProt O43353)
Chain of RIPK2 (human) (O43353 whole entry, looked up): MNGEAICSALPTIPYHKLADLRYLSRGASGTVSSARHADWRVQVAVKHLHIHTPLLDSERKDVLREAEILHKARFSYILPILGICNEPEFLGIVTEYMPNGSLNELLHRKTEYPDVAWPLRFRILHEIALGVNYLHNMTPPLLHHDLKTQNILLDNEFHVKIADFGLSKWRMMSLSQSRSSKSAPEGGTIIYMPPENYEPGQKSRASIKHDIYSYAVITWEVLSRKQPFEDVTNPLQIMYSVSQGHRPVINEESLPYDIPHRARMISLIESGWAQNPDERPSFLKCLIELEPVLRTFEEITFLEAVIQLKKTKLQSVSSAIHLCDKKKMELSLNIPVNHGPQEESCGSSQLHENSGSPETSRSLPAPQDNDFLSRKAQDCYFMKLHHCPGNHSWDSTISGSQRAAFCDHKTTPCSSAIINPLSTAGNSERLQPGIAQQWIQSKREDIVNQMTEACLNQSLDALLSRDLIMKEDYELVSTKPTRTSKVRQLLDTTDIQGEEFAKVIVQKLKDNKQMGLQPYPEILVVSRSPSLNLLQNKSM

[14] = molecular target: MST4 (human) (UniProt Q9P289)
[15] = molecular target: NTRK3 (human) (UniProt Q16288)
[16] = molecular target: MUSK (human) (UniProt O15146)
[17] = molecular target: MAP4K5 (human) (UniProt Q9Y4K4)
[18] = molecular target: CAMK4 (human) (UniProt Q16566)
Chain of CAMK4 (human) (Q16566 whole entry, looked up): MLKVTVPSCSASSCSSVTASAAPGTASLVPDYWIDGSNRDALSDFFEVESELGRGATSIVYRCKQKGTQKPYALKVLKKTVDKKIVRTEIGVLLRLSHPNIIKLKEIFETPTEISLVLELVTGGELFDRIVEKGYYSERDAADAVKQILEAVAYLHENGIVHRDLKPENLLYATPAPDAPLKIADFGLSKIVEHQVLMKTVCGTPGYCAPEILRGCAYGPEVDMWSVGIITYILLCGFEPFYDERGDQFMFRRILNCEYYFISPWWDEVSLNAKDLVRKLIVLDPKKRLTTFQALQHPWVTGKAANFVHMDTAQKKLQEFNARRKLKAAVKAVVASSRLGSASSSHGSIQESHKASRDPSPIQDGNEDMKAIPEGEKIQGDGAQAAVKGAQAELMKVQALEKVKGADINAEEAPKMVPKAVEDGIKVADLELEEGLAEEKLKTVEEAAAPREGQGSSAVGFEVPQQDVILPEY

[19] = molecular target: CDC42BPB (human) (UniProt Q9Y5S2)
[20] = molecular target: TGFBR2 (human) (UniProt P37173)
[21] = molecular target: HCK (human) (UniProt P08631)
[22] = molecular target: TTK (human) (UniProt P33981)
[23] = molecular target: PRKG2 (human) (UniProt Q13237)
[24] = molecular target: PTK6 (human) (UniProt Q13882)
[25] = molecular target: MARK1 (human) (UniProt Q9P0L2)
[26] = molecular target: EPHA2 (human) (UniProt P29317)
[27] = molecular target: EPHA8 (human) (UniProt P29322)
Chain of EPHA8 (human) (P29322 whole entry, looked up): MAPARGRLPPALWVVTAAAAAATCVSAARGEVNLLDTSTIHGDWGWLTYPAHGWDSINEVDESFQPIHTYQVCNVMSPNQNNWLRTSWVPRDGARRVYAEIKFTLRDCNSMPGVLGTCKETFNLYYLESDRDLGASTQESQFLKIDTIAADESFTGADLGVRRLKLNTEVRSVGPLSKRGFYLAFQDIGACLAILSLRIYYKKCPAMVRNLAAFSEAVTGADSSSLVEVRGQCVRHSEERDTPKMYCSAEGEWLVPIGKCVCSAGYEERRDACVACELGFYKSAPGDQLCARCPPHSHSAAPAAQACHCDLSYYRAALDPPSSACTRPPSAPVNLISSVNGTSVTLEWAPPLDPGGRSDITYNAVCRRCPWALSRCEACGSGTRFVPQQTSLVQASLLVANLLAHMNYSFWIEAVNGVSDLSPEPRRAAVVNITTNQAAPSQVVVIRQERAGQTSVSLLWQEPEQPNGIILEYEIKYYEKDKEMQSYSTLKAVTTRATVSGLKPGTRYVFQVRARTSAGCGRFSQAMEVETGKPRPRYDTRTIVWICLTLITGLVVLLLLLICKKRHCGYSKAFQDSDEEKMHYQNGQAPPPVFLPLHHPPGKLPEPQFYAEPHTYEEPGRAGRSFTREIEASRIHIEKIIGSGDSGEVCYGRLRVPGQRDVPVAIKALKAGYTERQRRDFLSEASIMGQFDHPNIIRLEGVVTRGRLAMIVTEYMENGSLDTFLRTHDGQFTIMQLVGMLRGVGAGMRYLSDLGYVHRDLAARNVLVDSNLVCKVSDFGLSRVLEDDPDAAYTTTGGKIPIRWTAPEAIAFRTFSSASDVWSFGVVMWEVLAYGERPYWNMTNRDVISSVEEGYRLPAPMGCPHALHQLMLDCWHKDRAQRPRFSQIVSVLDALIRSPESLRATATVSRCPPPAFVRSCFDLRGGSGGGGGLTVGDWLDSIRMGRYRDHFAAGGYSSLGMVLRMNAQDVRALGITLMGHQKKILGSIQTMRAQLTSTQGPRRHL

[28] = molecular target: CAMK2G (human) (UniProt Q13555)
[29] = molecular target: NEK1 (human) (UniProt Q96PY6)
[30] = molecular target: NUAK2 (human) (UniProt Q9H093)
[31] = molecular target: PRKCB1 (human) (UniProt P05771)
[32] = molecular target: CAMK2A (human) (UniProt Q9UQM7)
Chain of CAMK2A (human) (Q9UQM7 whole entry, looked up): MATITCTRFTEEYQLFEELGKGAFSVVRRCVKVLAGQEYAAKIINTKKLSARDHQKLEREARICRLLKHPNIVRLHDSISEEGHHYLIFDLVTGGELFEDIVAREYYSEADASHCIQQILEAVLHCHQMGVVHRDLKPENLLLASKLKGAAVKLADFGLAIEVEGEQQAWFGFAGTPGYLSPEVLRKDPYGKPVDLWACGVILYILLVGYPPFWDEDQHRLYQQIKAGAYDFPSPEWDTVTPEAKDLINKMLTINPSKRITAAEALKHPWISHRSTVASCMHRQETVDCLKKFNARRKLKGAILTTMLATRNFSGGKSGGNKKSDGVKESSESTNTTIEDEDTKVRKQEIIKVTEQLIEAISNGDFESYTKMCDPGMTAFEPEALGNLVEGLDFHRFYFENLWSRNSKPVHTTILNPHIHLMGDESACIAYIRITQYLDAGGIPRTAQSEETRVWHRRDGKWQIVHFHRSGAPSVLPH

[33] = molecular target: ADRBK2 (human) (UniProt P35626)
Chain of ADRBK2 (human) (P35626 whole entry, looked up): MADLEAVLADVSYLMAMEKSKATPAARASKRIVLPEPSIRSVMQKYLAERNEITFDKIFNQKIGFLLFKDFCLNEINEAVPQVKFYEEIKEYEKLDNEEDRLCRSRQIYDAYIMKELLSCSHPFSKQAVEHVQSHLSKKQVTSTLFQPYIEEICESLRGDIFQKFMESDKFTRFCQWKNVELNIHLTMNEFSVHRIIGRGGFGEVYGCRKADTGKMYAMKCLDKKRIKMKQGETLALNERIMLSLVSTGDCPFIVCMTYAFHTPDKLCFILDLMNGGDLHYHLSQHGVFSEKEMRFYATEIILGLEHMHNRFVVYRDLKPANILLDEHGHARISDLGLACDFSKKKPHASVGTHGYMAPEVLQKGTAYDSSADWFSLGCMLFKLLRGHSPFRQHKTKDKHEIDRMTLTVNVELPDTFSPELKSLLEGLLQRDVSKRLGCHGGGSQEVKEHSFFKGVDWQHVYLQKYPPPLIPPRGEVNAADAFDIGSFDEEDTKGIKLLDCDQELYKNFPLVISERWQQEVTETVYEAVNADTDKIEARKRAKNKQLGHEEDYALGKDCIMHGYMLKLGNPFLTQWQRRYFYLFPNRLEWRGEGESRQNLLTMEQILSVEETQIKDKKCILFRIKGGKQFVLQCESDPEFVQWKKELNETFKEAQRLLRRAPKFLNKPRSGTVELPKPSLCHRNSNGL

[34] = molecular target: INSR (human) (UniProt P06213)
[35] = molecular target: EPHA3 (human) (UniProt P29320)
[36] = molecular target: NEK6 (human) (UniProt Q9HC98)
Chain of NEK6 (human) (Q9HC98 whole entry, looked up): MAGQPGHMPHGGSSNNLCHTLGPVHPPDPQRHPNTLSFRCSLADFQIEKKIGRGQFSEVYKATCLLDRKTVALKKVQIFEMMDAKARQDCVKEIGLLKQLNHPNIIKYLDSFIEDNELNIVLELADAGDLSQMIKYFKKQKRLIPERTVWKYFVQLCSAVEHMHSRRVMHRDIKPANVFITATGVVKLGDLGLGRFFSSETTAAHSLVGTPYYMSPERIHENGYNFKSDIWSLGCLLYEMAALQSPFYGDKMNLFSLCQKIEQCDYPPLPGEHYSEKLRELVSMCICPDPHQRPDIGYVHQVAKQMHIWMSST

[37] = molecular target: SLK (human) (UniProt Q9H2G2)
[38] = molecular target: DYRK3 (human) (UniProt O43781)
Chain of DYRK3 (human) (O43781 whole entry, looked up): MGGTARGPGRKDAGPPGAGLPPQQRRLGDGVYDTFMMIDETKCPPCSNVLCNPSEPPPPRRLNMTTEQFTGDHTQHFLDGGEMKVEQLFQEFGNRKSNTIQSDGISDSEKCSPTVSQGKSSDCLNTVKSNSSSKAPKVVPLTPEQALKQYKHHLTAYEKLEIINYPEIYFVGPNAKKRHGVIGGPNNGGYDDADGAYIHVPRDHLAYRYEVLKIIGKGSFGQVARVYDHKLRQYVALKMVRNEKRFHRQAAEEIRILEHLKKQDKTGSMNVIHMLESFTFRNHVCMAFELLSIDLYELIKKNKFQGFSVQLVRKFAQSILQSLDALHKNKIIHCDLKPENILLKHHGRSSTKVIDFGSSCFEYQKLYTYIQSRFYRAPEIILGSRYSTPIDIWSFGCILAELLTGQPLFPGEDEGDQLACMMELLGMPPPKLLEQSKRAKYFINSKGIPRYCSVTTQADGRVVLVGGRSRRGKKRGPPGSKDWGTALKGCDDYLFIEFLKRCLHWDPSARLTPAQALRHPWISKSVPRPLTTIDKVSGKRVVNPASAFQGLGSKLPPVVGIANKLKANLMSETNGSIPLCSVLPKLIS

[39] = molecular target: FYN (human) (UniProt P06241)
[40] = molecular target: MET (human) (UniProt P08581)
[41] = molecular target: FGFR1 (human) (UniProt P11362)
[42] = molecular target: MAPK9 (human) (UniProt P45984)

Chain of NEK7 (human) (Q8TDX7 whole entry, looked up): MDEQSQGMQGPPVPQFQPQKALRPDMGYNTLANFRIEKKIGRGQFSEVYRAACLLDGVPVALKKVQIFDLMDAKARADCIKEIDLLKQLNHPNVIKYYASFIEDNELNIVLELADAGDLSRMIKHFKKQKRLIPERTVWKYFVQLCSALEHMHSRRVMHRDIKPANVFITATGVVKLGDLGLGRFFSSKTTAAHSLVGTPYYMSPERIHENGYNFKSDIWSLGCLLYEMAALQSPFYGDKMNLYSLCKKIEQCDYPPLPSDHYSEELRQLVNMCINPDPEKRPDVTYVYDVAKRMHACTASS
Chain of OXSR1 (human) (O95747 whole entry, looked up): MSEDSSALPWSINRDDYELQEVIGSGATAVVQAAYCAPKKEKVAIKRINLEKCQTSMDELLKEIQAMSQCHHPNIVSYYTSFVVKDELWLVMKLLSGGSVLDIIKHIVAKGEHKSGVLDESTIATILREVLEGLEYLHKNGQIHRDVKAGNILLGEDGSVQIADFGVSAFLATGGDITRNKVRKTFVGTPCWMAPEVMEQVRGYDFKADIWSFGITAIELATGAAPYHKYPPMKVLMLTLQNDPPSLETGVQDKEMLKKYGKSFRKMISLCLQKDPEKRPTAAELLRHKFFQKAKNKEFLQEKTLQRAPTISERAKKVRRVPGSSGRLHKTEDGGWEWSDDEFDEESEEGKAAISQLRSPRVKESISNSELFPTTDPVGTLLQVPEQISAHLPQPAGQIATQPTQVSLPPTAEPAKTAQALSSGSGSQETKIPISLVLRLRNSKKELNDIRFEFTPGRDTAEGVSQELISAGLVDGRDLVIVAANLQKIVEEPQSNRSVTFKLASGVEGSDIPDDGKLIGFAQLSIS

Cc1ccc(Nc2nccc(N(C)c3ccc4c(C)n(C)nc4c3)n2)cc1S(N)(=O)=O
residual activity [1]: 101%
residual activity [2]: 103%
residual activity [3]: 96.8%
residual activity [4]: 101%
residual activity [5]: 104%
residual activity [6]: 98.9%
residual activity [7]: 102%
residual activity [8]: 76%
residual activity [9]: 87%
residual activity [10]: 96.9%
residual activity [11]: 100%
residual activity [12]: 106%
residual activity [13]: 68.2%
residual activity [14]: 108%
residual activity [15]: 87.8%
residual activity [16]: 95.1%
residual activity [17]: 30.3%
residual activity [18]: 95.9%
residual activity [19]: 99.9%
residual activity [20]: 100%
residual activity [21]: 64.8%
residual activity [22]: 73.4%
residual activity [23]: 96%
residual activity [24]: 66.2%
residual activity [25]: 99.9%
residual activity [26]: 85.7%
residual activity [27]: 90%
residual activity [28]: 106%
residual activity [29]: 105%
residual activity [30]: 93.8%
residual activity [31]: 91%
residual activity [32]: 95.6%
residual activity [33]: 99.3%
residual activity [34]: 107%
residual activity [35]: 94.1%
residual activity [36]: 96.1%
residual activity [37]: 84.9%
residual activity [38]: 95.9%

O=C1NC(=O)c2c1c1c3ccccc3n3c1c1c2c2ccccc2n1C1CCC3O1
residual activity [1]: 99.1%
residual activity [2]: 92.4%
residual activity [39]: 59.9%
residual activity [3]: 1.08%
residual activity [4]: 17.5%
residual activity [5]: 91.7%
residual activity [6]: 43.9%
residual activity [7]: 63.6%
residual activity [8]: 23.5%
residual activity [9]: 23.9%
residual activity [10]: 81.8%
residual activity [11]: 0.435%
residual activity [12]: 14.3%
residual activity [13]: 79.7%
residual activity [14]: 20.5%
residual activity [15]: 1.41%
residual activity [16]: 25.8%
residual activity [17]: 2.69%
residual activity [18]: 98.7%
residual activity [20]: 70.3%
residual activity [21]: 24.8%
residual activity [22]: 76.4%
residual activity [23]: 6.01%
residual activity [40]: 76.9%
residual activity [24]: 83.9%
residual activity [41]: 29.1%
residual activity [25]: 10.4%
residual activity [26]: 91.3%
residual activity [27]: 89.9%
residual activity [28]: 8.36%
residual activity [29]: 50.9%
residual activity [30]: 52%
residual activity [31]: 22.5%
residual activity [32]: 2.84%
residual activity [33]: 101%
residual activity [42]: 96.1%
residual activity [34]: 17.2%
residual activity [35]: 96.5%
residual activity [36]: 93.1%
residual activity [37]: 26%
residual activity [38]: 16.6%
